Results as given in PubChem BioAssay AID623876 (Vanderbilt Specialized Chemistry Center, 2012).
pEC50: −log10 of the molar value. Where “and” joins values, the source holds several entries; their conditions need not be identical. Equal values may be shown once. Calls of active or inactive are those of the source.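 How the source made its calls: active means mean EC50 dose giving half the maximal effect below 30 µM; inactive means mean EC50 of 30 µM or more.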

target: Metabotropic glutamate receptor 4 (Homo sapiens) (UniProt Q14833); test: mGlu4 positive allosteric modulators, SAR follow-up, human, CHO Gqi5 cells, calcium mobilization (AID 623876); conditions: CHO hmGlu4/Gqi5 calcium mobilization, PAM at EC20 glutamate
Sequence (Q14833 whole entry, looked up): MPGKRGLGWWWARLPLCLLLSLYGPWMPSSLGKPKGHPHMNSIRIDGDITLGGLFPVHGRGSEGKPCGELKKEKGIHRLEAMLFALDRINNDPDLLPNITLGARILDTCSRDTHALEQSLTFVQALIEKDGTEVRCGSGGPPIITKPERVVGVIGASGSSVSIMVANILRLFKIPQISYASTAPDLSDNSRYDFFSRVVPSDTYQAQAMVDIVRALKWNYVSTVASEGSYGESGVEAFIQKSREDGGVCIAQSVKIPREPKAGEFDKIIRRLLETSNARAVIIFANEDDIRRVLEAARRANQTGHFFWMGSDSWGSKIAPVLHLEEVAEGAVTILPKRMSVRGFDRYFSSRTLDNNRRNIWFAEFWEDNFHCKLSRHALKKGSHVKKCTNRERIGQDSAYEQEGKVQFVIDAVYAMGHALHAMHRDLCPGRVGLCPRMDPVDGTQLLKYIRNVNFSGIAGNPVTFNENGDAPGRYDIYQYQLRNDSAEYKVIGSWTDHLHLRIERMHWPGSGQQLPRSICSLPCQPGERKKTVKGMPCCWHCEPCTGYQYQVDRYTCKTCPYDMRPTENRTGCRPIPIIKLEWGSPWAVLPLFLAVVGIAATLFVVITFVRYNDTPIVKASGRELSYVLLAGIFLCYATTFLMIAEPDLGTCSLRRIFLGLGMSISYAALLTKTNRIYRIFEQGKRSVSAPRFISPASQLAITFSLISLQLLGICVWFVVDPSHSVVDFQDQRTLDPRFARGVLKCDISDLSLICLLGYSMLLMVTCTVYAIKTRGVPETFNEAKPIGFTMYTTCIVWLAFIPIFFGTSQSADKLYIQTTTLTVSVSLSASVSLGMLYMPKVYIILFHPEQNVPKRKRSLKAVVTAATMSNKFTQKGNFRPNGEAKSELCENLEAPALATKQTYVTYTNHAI

pEC50 | SMILES
6.44 and 6.36 | FC(F)Oc1cccc(Nc2noc3cccnc23)c1
< 5.00 | COc1cc2nc(-c3ncc[nH]3)[nH]c2cc1Cl
< 5.00 | CC(C)N(C(=O)c1ccccn1)c1cccc(Cl)c1
< 5.00 | O=C(Nc1nc(C(F)(F)F)cs1)c1ccccn1
< 5.00 | COc1cc(NC(=O)c2ccccc2F)ccc1Cl
< 5.00 | O=C(Nc1ccc2cc[nH]c2c1)c1ccccn1
5.14 | Clc1cccc(Nc2ncnc3cccnc23)c1
< 5.00 | O=C(c1cscn1)N1CCOc2ccc(Cl)cc21
5.42 | O=C(Nc1ccc2c(c1)C(=O)NC2=O)c1ccccn1
5.86 | O=C(Nc1ccc2cn[nH]c2c1)c1ccccn1
6.33 and 6.52 and 6.60 | Clc1cccc(Nc2noc3cccnc23)c1
5.49 | COc1cc(Nc2noc3cccnc23)ccc1Cl
< 5.00 | O=c1[nH]c(-c2ccccn2)nc2cc(Cl)ccc12
6.22 | Clc1cccc(Nc2nc3ccccc3o2)c1
5.92 | O=C(Nc1cccc(Cl)c1)c1ccccn1
< 5.00 | Fc1ccc2nc(-c3ccccn3)[nH]c2c1
< 5.00 | Clc1cccc(Nc2coc3cccnc23)c1
< 5.00 | COc1cc2nc(-c3ccccn3)[nH]c2cc1Cl
5.33 | Clc1ccc2nc(-c3ccccn3)[nH]c2c1
< 5.00 | Clc1cccc(Nc2ccccn2)c1
5.92 | Fc1cccc(Nc2noc3cccnc23)c1

same assay, conditions: CHO hmGlu4/Gqi5 calcium mobilization, PAM at EC20 glutamate; active compounds read high

% glutamate max response | SMILES
inactive | CCN(C(=O)c1ccccn1)c1cccc(Cl)c1
inactive | COc1cc(Nc2nccc3ccccc23)ccc1Cl
inactive | COc1cc(OC)cc(-c2nc(-c3ccccn3)no2)c1
inactive | O=C(NCc1cccc(Cl)c1)c1ccccn1
inactive | COc1cc(NC(=O)c2ccccc2C)ccc1Cl
inactive | Cn1ccc(NC(=O)c2ccccn2)n1
inactive | Fc1ccc(Nc2ncnc3cccnc23)cc1Cl
inactive | O=C(c1ccccn1)N(Cc1ccccn1)c1cccc(Cl)c1
inactive | COc1cc2nc(-c3cnccn3)[nH]c2cc1Cl
inactive | O=C(c1cncs1)N1CCOc2ccc(Cl)cc21
inactive | O=C(c1ccncn1)N1CCOc2ccc(Cl)cc21
inactive | COc1cc(N2Cc3ccccc3C2=O)ccc1Cl
inactive | Fc1ccc(Nc2ncnc3cccnc23)cc1F
inactive | Cn1ccnc1NC(=O)c1ccccn1
inactive | c1ccc(Nc2ncnc3cccnc23)cc1
inactive | Fc1cccc(Nc2ncnc3cccnc23)c1
inactive | Clc1cccc(-c2nc(-c3ccccn3)no2)c1
inactive | COc1cc(NS(=O)(=O)c2ccccn2)ccc1Cl
inactive | O=C1COc2cc(NC(=O)c3ccccn3)ccc2N1
inactive | FC(F)(F)c1cccc(-c2nc(-c3ccccn3)no2)c1
inactive | Cc1nc(NC(=O)c2ccccn2)nn1C
inactive | c1ccc(Nc2coc3cccnc23)cc1
inactive | COc1cc(Nc2ncn3ccccc23)ccc1Cl
inactive | COc1cc(Nc2nc3ccccc3o2)ccc1Cl

% glutamate max response | SMILES
inactive | c1cnc2c(Nc3ccc4c(c3)OCO4)ncnc2c1
inactive | COc1cc(NC(=O)c2c(F)cccc2F)ccc1Cl
inactive | COc1cc(Nc2nccc3cccnc23)ccc1Cl
inactive | Clc1cccc(Nc2nccc3ccccc23)c1
inactive | COc1ccc(Nc2ncnc3cccnc23)cc1Cl
inactive | O=C(c1ccco1)N1CCOc2ccc(Cl)cc21
inactive | COc1cc(Nc2cccc3cccnc23)ccc1Cl
inactive | Cc1nsc(NC(=O)c2ccccn2)n1
inactive | O=C(c1ccccn1)N1CCOc2c(Cl)cccc21
inactive | COc1cccc(C(=O)N2CCOc3ccc(Cl)cc32)n1
inactive | O=C(c1ccccn1)N1CCOc2ccc(Cl)cc21
inactive | Clc1cccc(-c2n[nH]c(-c3ccccn3)n2)c1
inactive | Brc1cccc(-c2nc(-c3ccccn3)no2)c1
inactive | Clc1cccc(Nc2nccc3cccnc23)c1
inactive | Cn1cnc(NC(=O)c2ccccn2)n1
inactive | O=C1c2cccnc2C(=O)N1c1cccc(Cl)c1
inactive | O=C(c1cccs1)N1CCOc2ccc(Cl)cc21
inactive | COc1cc(NC(C)=O)ccc1Cl
inactive | Cc1cc(Nc2ncnc3cccnc23)ccc1Cl
inactive | Clc1cccc(Nc2cccc3cccnc23)c1
inactive | COc1cc(N2C(=O)c3ccccc3C2=O)ccc1Cl
inactive | COc1cc(N2C(=O)c3cccnc3C2=O)ccc1Cl
inactive | O=C(NCCc1cccc(Cl)c1)c1ccccn1
inactive | O=C(c1cccc(Cl)n1)N1CCOc2ccc(Cl)cc21
